The subject of this assay is M. tuberculosis Erdman. Nature of the assay: M. tuberculosis chronic infection mouse model, CFU in the lungs. It counts as in vivo, BALB/c mice.

For the compound `[H]/N=C(/N)N[C@H]1[C@H](O)[C@@H](O)[C@H](O[C@@H]2O[C@@H](C)[C@](O)(C=O)[C@H]2O[C@@H]2O[C@@H](CO)[C@H](O)[C@@H](O)[C@@H]2NC)[C@@H](N/C(N)=N\[H])[C@@H]1O` [SM, streptomycin], the “log CFU in the lungs” value (100 mg/kg injected subcutaneously (solution in water) daily for 3 weeks, control 6.88) is 6.13 log CFU. For the same compound, the “reduction in growth of the TB bacilli compared to the control group” value (injected subcutaneously, 100 mg/kg daily 3 weeks, p<0.01) is “one”.
